From US12370235B2, “Synthetic, non-natural antimicrobial peptides inspired by Staphylococcus auricularis delta toxin” (University of Saskatchewan, priority 2021, dated 2025)
Ends that are not written are not given here.

Columns and labels:
S. aureus ATCC 29213 [1] = experiment: Spot-on-lawn assay; format: cell-based, Staphylococcus aureus; settings: 50 μg peptide spotted on agar
Protocol: Spot-on-lawn assay. For the initial screen, peptides of ≥70% purity were used. Each peptide was resuspended in sterile water to a concentration of 10 mg/ml. To determine antimicrobial activities a spot-on-lawn assay was performed. M. luteus and S. aureus were used as indicator strains. To prepare test organisms, the optical density (OD) of overnight cultures were measured and the organisms were diluted to an initial OD of 0.05 in soft nutrient agar (0.4% w/v) at 50° C. Next, 3 mL of soft agar containing a test organism was overlaid on a solid 1.5% w/v nutrient agar plate (LB). A total of 50 μg of each peptide was spotted on the inoculated surface and plates were incubated for 16 to 48 h before being examined for zones of inhibition.
SspA protease treatment. SspA protease was resuspended at 2 mg/mL in 100 mM HEPES, pH 7.8. Proteolysis was achieved by incubation of 50 μg PSMs at 37° C. for ˜5 hours with 0.2 mg/mL SspA. The antimicrobial activity of the proteolytic products were assayed by spotting a 5 μL (˜45 μg) from each treated peptide on each test microorganism as described above.

S. aureus ATCC 29213 [2] = experiment: MIC, broth dilution; format: cell-based, Staphylococcus aureus; settings: for MIC (μg/mL) S. aureus: liquid broth; for MIC S. aureus ATCC 29213: Table 5, STIP3 variants, highest concentration 100 μg/mL
Outline: (§1)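 Peptides (95% purity) were serially diluted 2-fold and mixed with bacteria diluted to OD 6×10^−4 in cation-adjusted Mueller Hinton broth. Standing cultures were incubated overnight at 37° C. MIC was the lowest peptide concentration with no observed growth.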

M. luteus ATCC 4698 = experiment: MIC, broth dilution; format: cell-based, Micrococcus luteus; settings: Table 4; liquid broth
Protocol: MIC determination. MICs were measured using peptides with 95% purity. For bacterial studies, cation-adjusted Mueller Hinton (MH) broth was used as the growth medium whereas Yeast Peptone Dextrose (YPD; 10 g/L yeast extract, 20 g/L peptone, 20 g/L dextrose) was used for Candida spp. and other yeast. Microorganisms were diluted to an optical density of […] in MH or YPD broth and a 180 μl volume was mixed with 20 μl of peptide arrayed as a 2-fold dilution series in a flat-bottom 96-well microtitre plate. A control was performed using 20 μl of sterile water. Plates were incubated as standing cultures overnight at 37° C.
(§2) Determination of minimum inhibitory concentrations. The MICs were measured for bioactive peptides identified from the initial screen. For bacterial studies, cation-adjusted Mueller Hinton (MH) broth was used as the growth medium whereas YPD was used for C. albicans. Bacterial cultures were diluted to a OD value of 6×10^−4 in MH broth and a 180 μl volume was mixed with 20 μl of peptide arrayed as 2-fold dilution series in a 96-well plate. For the positive control, 20 μl of sterile water was used. Plates were incubated as standing cultures overnight at 37° C. The lowest peptide concentration that resulted no observed microbial growth after an overnight treatment was defined as the MIC.

[3] = system: Mannheimia haemolytica ATCC 33393; experiment: MIC, broth dilution; format: cell-based
Outline: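 Peptides (95% purity) in 2-fold dilution series were mixed with M. haemolytica diluted to OD 6×10^−4 in cation-adjusted Mueller Hinton broth and incubated standing overnight at 37 °C. MIC was the lowest concentration with no visible growth.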

[4] = system: S. aureus / MRSA (ATCC MP-2 panel); format: cell-based, Staphylococcus aureus
Protocol: In order to begin to characterize STIP3-1 and potential sites amenable to modification, an alanine scanning experiment was performed. A total of 16 peptides with single alanine substitutions were assessed to inform on the importance of individual residues to antimicrobial activity. […] Next a series of thirty STIP3-1 variants were designed, guided by the aforementioned alanine scan and a previous report that the central α-helical core of the S. aureus δ-toxin could be converted into AMP through the inclusion of additional lysine residues^39. The collection included ten members with single substitutions relative to STIP3-1 and others that incorporated a number of changes that were designed to increase overall and local cationic charge as well as hydrophobic character (Table 5). Each of the STIPs was screened, including STIP3-1 to STIP-31, for antibiotic activity against a methicillin-sensitive S. aureus test organism and a panel of 7 MRSA strains defined by distinct SCCmec genotypes (FIG. 2; ATCC MP-2).
as §2

[5] = system: S. aureus ATCC 33592 (MRSA SCCmec type III); experiment: MIC, broth dilution; format: cell-based, Staphylococcus aureus; settings: Table 5; STIP3 variants, highest concentration 100 μg/mL
Outline: as §1

[6] = Circular dichroism spectroscopy; format: physicochemical; settings: CD, 50% (v/v) TFE
Source text: The δ-toxins and the PSMs are characterized as α-helical peptides that form amyloid fibers^48. Although the propensity of individual peptides to form amyloids is correlated to their cytotoxicity^49, the amyloid form is not directly implicated in cell membrane disruption^50. […] CD spectroscopy was used to investigate the secondary structure of a subset of peptides within the collection (FIG. 4A, Table 5). The STIP variants adopted α-helical forms in 50% (v/v) trifluoroethanol (TFE), though unlike the full-length S. auricularis δ-toxin, they were unstructured in water. […] Specifically, peptides characterized by the greatest and least α-helical content in TFE had MICs above the highest tested threshold.
Circular dichroism spectroscopy. Peptides were dissolved in water at concentrations between 0.3 and 0.5 mg/mL. CD spectra were recorded on an Applied Photophysics Chirascan Plus CD spectrophotometer at room temperature in a 0.1 cm path-length quartz cuvette. Spectra were recorded from 180 to 260 nm.

[7] = system: Candida duobushaemulonii AR 394; experiment: MIC, YPD broth, CDC and FDA AR Candida isolate panel; format: cell-based; settings: Table 9 below the line: only 200 or 100 μg/mL tested; values reported as 100 are ≤100 μg/mL
Outline: (§3)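 Peptides of 95% purity were tested as 2-fold dilution series against cells adjusted to optical density […] in YPD broth. Growth read after overnight static incubation at 37 °C, with sterile water as control.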

[8] = system: Saccharomyces cerevisiae AR 399; experiment: as above; format: cell-based; settings: Table 9 below the line: only 200 or 100 μg/mL tested; values reported as 100 are ≤100 μg/mL
Outline: as §3

[9] = system: Candida lusitaniae AR 398; experiment: as above; format: cell-based; settings: Table 9 below the line: only 200 or 100 μg/mL tested; values reported as 100 are ≤100 μg/mL
Outline: as §3

[10] = system: Candida duobushaemulonii AR 392; experiment: as above; format: cell-based; settings: Table 9 below the line: only 200 or 100 μg/mL tested; values reported as 100 are ≤100 μg/mL
Outline: as §3

[11] = system: Candida duobushaemulonii AR 391; experiment: as above; format: cell-based; settings: Table 9 below the line: only 200 or 100 μg/mL tested; values reported as 100 are ≤100 μg/mL
Outline: as §3

[12] = system: Candida haemulonii AR 393; experiment: as above; format: cell-based; settings: Table 9 below the line: only 200 or 100 μg/mL tested; values reported as 100 are ≤100 μg/mL
Outline: as §3

[13] = system: Candida haemulonii AR 395; experiment: as above; format: cell-based; settings: Table 9 below the line: only 200 or 100 μg/mL tested; values reported as 100 are ≤100 μg/mL
Outline: as §3

Candida krusei AR 397 = experiment: as above; format: cell-based; settings: Table 9 below the line: only 200 or 100 μg/mL tested; values reported as 100 are ≤100 μg/mL
Outline: as §3

[14] = system: Saccharomyces cerevisiae AR 400; experiment: as above; format: cell-based; settings: Table 9 below the line: only 200 or 100 μg/mL tested; values reported as 100 are ≤100 μg/mL
Outline: as §3

Kodamae ohmeri AR 396 = experiment: as above; format: cell-based; settings: Table 9 below the line: only 200 or 100 μg/mL tested; values reported as 100 are ≤100 μg/mL
Outline: as §3

[15] = system: S. aureus ATCC BAA-42 (MRSA SCCmec type VI); experiment: MIC, broth dilution; format: cell-based, Staphylococcus aureus; settings: Table 5; STIP3 variants, highest concentration 100 μg/mL
Outline: as §1

[16] = system: S. aureus ATCC BAA-2313 (MRSA SCCmec type XI); experiment: MIC, broth dilution; format: cell-based, Staphylococcus aureus; settings: Table 5; STIP3 variants, highest concentration 100 μg/mL
Outline: as §1

[17] = system: S. aureus ATCC BAA-2094 (MRSA SCCmec type V); experiment: MIC, broth dilution; format: cell-based, Staphylococcus aureus; settings: Table 5; STIP3 variants, highest concentration 100 μg/mL
Outline: as §1

[18] = system: S. aureus ATCC BAA-1683 (MRSA SCCmec type IV); experiment: MIC, broth dilution; format: cell-based, Staphylococcus aureus; settings: Table 5; STIP3 variants, highest concentration 100 μg/mL
Outline: as §1

[19] = system: S. aureus ATCC BAA-41 (MRSA SCCmec type II); experiment: MIC, broth dilution; format: cell-based, Staphylococcus aureus; settings: Table 5; STIP3 variants, highest concentration 100 μg/mL
Outline: as §1

[20] = system: S. aureus ATCC BAA-44 (MRSA SCCmec type I); experiment: MIC, broth dilution; format: cell-based, Staphylococcus aureus; settings: Table 5; STIP3 variants, highest concentration 100 μg/mL
Outline: as §1

C. albicans Y537 = experiment: MIC, YPD broth; format: cell-based, Candida albicans; settings: Table 8
C. albicans MYA-2876 = experiment: MIC, YPD broth; format: cell-based, Candida albicans; settings: Table 8
Outline: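 Minimum inhibitory concentrations against Candida albicans were determined in YPD broth (10 g/L yeast extract, 20 g/L peptone, 20 g/L dextrose) using peptides of 95% purity. A 180 μl volume of diluted yeast was combined with 20 μl of peptide in a 2-fold dilution series in 96-well plates, with sterile water as control, then incubated standing overnight at 37° C.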

TVAGLVKWILDTVKKFA [G3A, TVAGLVKWILDTVKKFA]
inhibition of S. aureus, spot-on-lawn (S. aureus ATCC 29213 [1]): observed to inhibit S. aureus
MIC (μg/mL) S. aureus (S. aureus ATCC 29213 [2]; Table 4): >^b (> = >200 μg/mL (maximum concentration tested))
MIC (μg/mL) S. aureus (S. aureus ATCC 29213 [2]; Table 10): >^b (the use of > indicates an MIC > 200 μg/mL; the maximum concentration tested)
MIC (μg/mL) M. luteus (M. luteus ATCC 4698): 50 µg/mL
MIC (μg/mL) M. haemolytica ([3]; Table 10, liquid broth): 100 µg/mL

TVGGLVKWILKTVKKFA-NH2 [STIP3-29-D3]
fold increase of MIC relative to STIP3-29 [4]: greater than 16 fold
MIC S. aureus ATCC 33592 (III) [5]: > (no inhibition was observed at the highest concentration of peptide tested: 100 μg/mL for the STIP3 variants)
MIC S. aureus ATCC 29213 (S. aureus ATCC 29213 [2]): > (no inhibition was observed at the highest concentration of peptide tested: 100 μg/mL for the STIP3 variants)
α helicity (%) [6]: 32%

TVKVLVKWILKVVAKFA [STIP3-26, TVKVLVKWILKVVAKFA]
inhibition of S. aureus ([4]; MIC screen, in words): incapable of inhibiting S. aureus
MIC (μg/mL) Candida duobushaemulonii AR 394 [7]: > (values below the line were determined using two concentrations of peptide 200 or 100 μg/mL)
MIC (μg/mL) Saccharomyces cerevisiae AR 399 [8]: ≤ 100 µg/mL
MIC (μg/mL) Candida lusitaniae AR 398 [9]: ≤ 100 µg/mL
MIC (μg/mL) Candida duobushaemulonii AR 392 [10]: > (values below the line were determined using two concentrations of peptide 200 or 100 μg/mL)
MIC (μg/mL) Candida duobushaemulonii AR 391 [11]: > (values below the line were determined using two concentrations of peptide 200 or 100 μg/mL)
MIC (μg/mL) Candida haemulonii AR 393 [12]: > (values below the line were determined using two concentrations of peptide 200 or 100 μg/mL)
MIC (μg/mL) Candida haemulonii AR 395 [13]: > (values below the line were determined using two concentrations of peptide 200 or 100 μg/mL)
MIC (μg/mL) Candida krusei AR 397 (Candida krusei AR 397): > (values below the line were determined using two concentrations of peptide 200 or 100 μg/mL)
MIC (μg/mL) Saccharomyces cerevisiae AR 400 [14]: ≤ 100 µg/mL
MIC (μg/mL) Kodamae ohmeri AR 396 (Kodamae ohmeri AR 396): > (values below the line were determined using two concentrations of peptide 200 or 100 μg/mL)
MIC S. aureus ATCC BAA 42 (VI) [15]: > (no inhibition was observed at the highest concentration of peptide tested: 100 μg/mL for the STIP3 variants)
MIC S. aureus ATCC 33592 (III) [5]: > (no inhibition was observed at the highest concentration of peptide tested: 100 μg/mL for the STIP3 variants)
MIC S. aureus ATCC BAA 2313 (XI) [16]: > (no inhibition was observed at the highest concentration of peptide tested: 100 μg/mL for the STIP3 variants)
MIC S. aureus ATCC BAA 2094 (V) [17]: > (no inhibition was observed at the highest concentration of peptide tested: 100 μg/mL for the STIP3 variants)
MIC S. aureus ATCC BAA 1683 (IV) [18]: > (no inhibition was observed at the highest concentration of peptide tested: 100 μg/mL for the STIP3 variants)
MIC S. aureus ATCC BAA 41 (II) [19]: > (no inhibition was observed at the highest concentration of peptide tested: 100 μg/mL for the STIP3 variants)
MIC S. aureus ATCC 29213 (S. aureus ATCC 29213 [2]): > (no inhibition was observed at the highest concentration of peptide tested: 100 μg/mL for the STIP3 variants)
MIC S. aureus ATCC BAA 44 (I) [20]: > (no inhibition was observed at the highest concentration of peptide tested: 100 μg/mL for the STIP3 variants)
MIC C. albicans Y537 (C. albicans Y537): > (> symbol indicates that no inhibition was observed at the highest concentration of peptide tested: 100 μg/mL)
MIC C. albicans MYA-2876 (C. albicans MYA-2876): > (> symbol indicates that no inhibition was observed at the highest concentration of peptide tested: 100 μg/mL)
MIC (μg/mL) M. haemolytica ([3]; Table 11, highest concentration 25 μg/mL): > (> symbol indicates that no inhibition was observed at the highest concentration of peptide tested: 25 μg/mL)
